The values below come from patent publication US11253554B2, “Bacterial profile to detect fungal taxa abundance in the gut” (Virginia Commonwealth University, priority 2016, dated 2022).

The nature of data set [1]: Pre-PPI/post-PPI longitudinal study, clinical course. In kind it is in vivo, human. As to conditions: patients with cirrhosis; before 8.1±2.7, p=0.41. The method, then:
The impact of PPI on fungal parameters were analyzed from a prior trial in which 40 mg of omeprazole was administered daily for 14 days in compensated outpatients with cirrhosis and healthy controls, (Bajaj J S, et al. Am J Physiol Gastrointest Liver Physiol 2014 307:[…]-[…]).

Data set [2] concerns fungal taxa (stool mycobiome). The data set is described as follows: Pre-PPI/post-PPI longitudinal study, stool ITS1 fungal community analysis. In kind it is in vivo, human. The note with it: after 14 days of 40 mg omeprazole daily. As to the method: (§1) The impact of PPI on fungal parameters were analyzed from a prior trial in which 40 mg of omeprazole was administered daily for 14 days in compensated outpatients with cirrhosis and healthy controls, (Bajaj J S, et al. Am J Physiol Gastrointest Liver Physiol 2014 307:G951-G957).
(§2) For all these studies, Shannon diversity indices for both bacterial and fungal taxa as well as LEFSe comparisons (Segata N, et al. Genome Biol 2011 12:R60) at baseline and the end of study were performed and compared.
Similarly, the ITS1 regions of the fungal 18S ribosomal RNA (rRNA) gene were sequenced on a PGM Ion Torrent Next-generation sequencer using Multitag fusion primers (ITS1F: 5′-[…]-3′ (SEQ ID NO:3); ITS2: 5′-[…]-3′ (SEQ ID NO:4)). Amplicons for 96 samples were sequenced together to generate >10,000×400 base reads per sample. The mycobiome is generally less diverse than the microbiome and thus required fewer reads to interrogate this community (Ghannoum M A, et al. PLoS pathogens 2010 6:e1000713). Greater than 1000 reads for bacteria and greater than 100 reads for fungi were used given the relatively lower abundance of fungal taxa as the lowest number chosen to be acceptable. […] A cutoff of 100 reads per sample was used as that was clearly above the negative control and is the break point in FIG. 6. […]

The subject of data set [3] is bacterial taxa (stool microbiota). Description: Pre-PPI/post-PPI longitudinal study, stool 16S rRNA bacterial community analysis. It is filed as in vivo, human. The note with it: after 14 days of 40 mg omeprazole daily. The method, then:
as §1, §2
(§3) Microbial DNA were isolated from stool samples as previously described (Gillevet P, et al. Chem Biodivers 2010 7:1065-75). […] Amplicons for 96 samples were then sequenced together to generate >20,000×400 base reads per sample.
The Microbiome Analysis Center's Portal was used to organize raw data, track clinical metadata, and track analysis between the groups at baseline and/if they develop infections and are resampled. […] The taxonomic identity of reference sequences were determined using the RDP11 Classifier (Wang Q et al. Appl Environ Microbiol 2007 73:5261-7) and QIIME Pipeline. […] Changes in abundance of individual bacterial and fungal taxa were also analyzed using traditional univariate statistical methods. […]

For data set [4] the following is noted: all subjects, 40 mg daily for 14 days, as reported in prior trial; cited from earlier work.
In data set [5] the test system is fungal taxa (stool mycobiome). Description: Cross-sectional study of outpatients with cirrhosis, fungal Shannon diversity. It is filed as in vivo, human. As to conditions: outpatients with cirrhosis on rifaximin without SBP prophylaxis; vs SBPP 0.83±0.60. As to the method: (§4) Healthy controls that were age-matched were enrolled with two sets of patients with cirrhosis, outpatients and inpatients. Healthy controls were outpatients without any chronic diseases or medications. Patients with cirrhosis were included who were diagnosed using liver biopsy, evidence of frank decompensation or radiological features of cirrhosis who were between 21 and 75 years. Patients who were unable to give consent or provide stool within 48 hours of admission, with alcohol misuse, alcoholic hepatitis, on antifungal medications and with gastrointestinal bleeding episodes within 6 weeks were excluded. Also excluded were those undergoing HCV eradication or those on probiotics within the last 3 months. […]
Similarly, the ITS1 regions of the fungal 18S ribosomal RNA (rRNA) gene were sequenced on a PGM Ion Torrent Next-generation sequencer using Multitag fusion primers (ITS1F: 5′-[…]-3′ (SEQ ID NO:3); ITS2: 5′-[…]-3′ (SEQ ID NO:4)). Amplicons for 96 samples were sequenced together to generate >10,000×400 base reads per sample. The mycobiome is generally less diverse than the microbiome and thus required fewer reads to interrogate this community (Ghannoum M A, et al. PLoS pathogens 2010 6:e1000713). Greater than 1000 reads for bacteria and greater than 100 reads for fungi were used given the relatively lower abundance of fungal taxa as the lowest number chosen to be acceptable. […]

Data set [6] concerns bacterial taxa (stool microbiota). Description: Cross-sectional study of outpatients with cirrhosis, bacterial Shannon diversity. It is filed as in vivo, human. The note with it: outpatients with cirrhosis on rifaximin without SBP prophylaxis; vs SBPP 1.3±0.5. As to the method:
as §4, §3
The Microbiome Analysis Center's Portal was used to organize raw data, track clinical metadata, and track analysis between the groups at baseline and/if they develop infections and are resampled. […] The taxonomic identity of reference sequences were determined using the RDP11 Classifier (Wang Q et al. Appl Environ Microbiol 2007 73:5261-7) and QIIME Pipeline. […]

With `COc1ccc2[nH]c([S+]([O-])Cc3ncc(C)c(OC)c3C)nc2c1` (centres unmarked) [omeprazole], the “MELD score after therapy” value in data set [1] came to 7.9±3.5. Besides, the “fungal diversity (Shannon index) post” value in data set [2] (healthy controls, pre 1.92±0.48, p=0.46) amounted to 1.73±0.61; in data set [2] (patients with cirrhosis, pre 1.64±0.34, p=0.39), 1.45±0.38. Besides, the “bacterial diversity (Shannon index) post” value stood at 1.63±0.22 in data set [3] (healthy controls, pre 1.88±0.16, p=0.004) and 1.54±0.34 in data set [3] (patients with cirrhosis, pre 1.89±0.25, p=0.05). Further, in data set [4], the tolerability entry is “able to tolerate”.
On to `CO[C@H]1/C=C/O[C@@]2(C)Oc3c(C)c(O)c4c(O)c(c5c(nc6cc(C)ccn65)c4c3C2=O)NC(=O)/C(C)=C\C=C\[C@H](C)[C@H](O)[C@@H](C)[C@@H](O)[C@@H](C)[C@H](OC(C)=O)[C@@H]1C` [rifaximin], for which the “fungal diversity (Shannon index)” value in data set [5] was 0.77±0.77. The “bacterial diversity (Shannon index)” value in data set [6] worked out at 1.32±0.51.
